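96-well plates; 48 h exposure; 5 concentrations. Endpoints by linear interpolation between flanking doses. Not reached: highest tested concentration assigned. At the TGI there is no net growth.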
Experiments:
Experiment in all cases: NCI anticancer screen, dose series, 48 h
[1] = system: HCC-2998 colon
[2] = system: HCT-116 colon
[3] = system: SK-MEL-5 melanoma
[4] = system: UACC-257 melanoma
[5] = system: NCI/ADR-RES ovarian
[6] = system: PC-3 prostate
[7] = system: MOLT-4 leukemia
[8] = system: SF-268 CNS
[9] = system: HOP-62 NSCLC
[10] = system: NCI-H522 lung
[11] = system: KM12 colon
[12] = system: A549 NSCLC
[13] = system: SK-OV-3 ovarian
[14] = system: RXF 393 renal
[15] = system: HCT-15 colon
[16] = system: T-47D breast
[17] = system: CAKI-1 renal
[18] = system: DU-145 prostate
[19] = system: OVCAR-8 ovarian
[20] = system: MDA-MB-231 breast
[21] = system: CCRF-CEM leukemia
[22] = system: OVCAR-5 ovarian
[23] = system: LOX IMVI melanoma
[24] = system: SNB-19 CNS
[25] = system: MALME-3M melanoma
[26] = system: UO-31 renal
[27] = system: COLO 205 colon
[28] = system: EKVX NSCLC
[29] = system: OVCAR-3 ovarian
[30] = system: SF-539 CNS
[31] = system: M14 melanoma
[32] = system: NCI-H460 lung
[33] = system: SF-295 CNS
[34] = system: IGROV1 ovarian
[35] = system: SR leukemia
[36] = system: BT-549 breast
[37] = system: TK-10 renal
[38] = system: MDA-N
[39] = system: SNB-75 CNS
[40] = system: 786-0 renal
[41] = system: NCI-H23 lung
[42] = system: UACC-62 melanoma
[43] = system: K-562 leukemia
[44] = system: HS 578T breast
[45] = system: MDA-MB-435
[46] = system: SK-MEL-2 melanoma
[47] = system: ACHN renal
[48] = system: HT29 colon
[49] = system: SN12C renal
[50] = system: MCF7 breast
[51] = system: OVCAR-4 ovarian
[52] = system: RPMI-8226 leukemia
[53] = system: A498 renal
[54] = system: SW-620 colon
[55] = system: SK-MEL-28 melanoma
[56] = system: HOP-92 NSCLC
[57] = system: U251 CNS
[58] = system: HL-60(TB) leukemia
[59] = system: NCI-H226 lung

Measured: TGI

CCc1n[nH]c(=O)[nH]1
not listed: [51] | [52] | [53] | [54] | [55] | [56] | [57] | [58] | [59]
> 100 µM: all other assays above

Cc1ccc(C)c2c1n1c(=O)n(C)c(=O)n21
not listed: [7] | [9] | [35] | [43]
> 100 µM: all other assays above

CC1/C(=N/O)CC(c2ccccc2)N(N=O)C1c1ccccc1 (stereo not given)
not listed: [22] | [35] | [53]
> 100 µM: all other assays above

NNS(=O)(=O)c1ccc(/C=C2\NC(=O)NC2=O)cc1
not listed: [10] | [14] | [30] | [32] | [35]
> 100 µM: all other assays above
